Patent US11052069B2, “Regimes of FXR agonists” (NOVARTIS AG, priority 2016, dated 2021)
Like-named read-outs stand apart in the source and are kept apart here.

What was measured:
[1] = test system: NASH in adults with liver fibrosis; details: human, in vivo; cited from earlier work
[2] = Human study SAD/MAD: safety, tolerability and plasma pharmacokinetics; assay type: in vivo
Protocol: (§1) Methods: SAD: Subjects received 5 to 750 mg of Compound A (7 cohorts: 6 active, 2 placebo); subjects from one cohort returned for a second dosing cycle with a high-fat meal (3 active, 1 placebo). MAD: Subjects received 5 to 250 mg of Compound A daily for 14 days (5 cohorts; 6 active, 2 placebo). All adverse events (AEs) were captured, and plasma levels of Compound A and PD biomarkers were determined pre- and post-dosing at various time points.

[3] = test system: STAM mouse model of NASH; assay: Compound A versus OCA in the STAM mouse model of NASH (Example 2); assay type: in vivo; details: Compound A 3 to 30 mg/kg vs OCA 25 mg/kg, 3 weeks
Source text: FIGS. 1 and 2 describe an in-vivo efficacy study of Compound A versus OCA in the STAM model of non-alcoholic steatohepatitis for a treatment period of 6-9 weeks. FIG. 2 refers to the results on NAFLD Activity Score; FIG. 1 to Sirius-red positive area.
NASH was induced for 6 weeks prior to treatment with the indicated compound (and dose). Then, they have been treated with the indicated compound for 3 weeks prior to sacrifice.
NAFLD Activity Score from H&E stained liver sections from STAM disease (NASH) animals treated for 3 weeks with the indicated compound or vehicle. Disease was initiated in animals for 6 weeks prior to dosing and then animals were treated with Vehicle-1, Vehicle-2, Compound A (3 to 30 mg/kg) or OCA (25 mg/kg) for 3 weeks. NAS was determined by the method of Kleiner (Kleiner et al. 2005).
Sirius red stained liver sections from STAM disease (NASH) animals treated for 3 weeks with the indicated compound or vehicle. Disease was initiated in animals for 6 weeks prior to dosing and then animals were treated with Vehicle-1, Vehicle-2, Compound A (3 to 30 mg/kg) or OCA (25 mg/kg) for 3 weeks. Quantitative analysis of Sirius Red sections were performed using ImageJ software.

[4] = test system: ANIT-induced cholestasis; assay: Rat ANIT-induced cholestasis chronic treatment model; assay type: in vivo
Protocol: The efficacious concentration of Compound A was determined by PK/PD modeling from the rat ANIT-induced cholestasis chronic treatment model.

[5] = test system: FGF19, C4, total bile acid; assay: Human study SAD/MAD: PD biomarkers; assay type: in vivo
Protocol: as §1

[6] = test system: STAM model of non-alcoholic steatohepatitis; assay: In vivo efficacy study in the STAM model of non-alcoholic steatohepatitis (Example 1); parameters: species or system C57BL/6 mice
Protocol: Steatohepatitis (Treatment period: 6 to 9 wks and 9-12 weeks)
The study involves 14-day-pregnant C57BL/6 mice. NASH was established by a single subcutaneous injection of 200 μg streptozotocin (Sigma, USA) after birth and feeding with a high fat diet (HFD, 57% kcal fat, CLEA Japan, Japan) ad libitum after 4 weeks of age (day 28±2). Randomization of NASH mice into groups of 12 mice at 6 weeks of age (day 42±2) and groups of 12 mice at 9 weeks of age (day 63±2), the day before the start of treatment, respectively. NASH animals were dosed from age 6-9 weeks (Study 1), or from age 9-12 weeks (Study 2) with either: vehicle, Compound A, OCA or Compound A. A non-disease vehicle-control group of was included in both Study 1 and Study 2. These animals were fed with a normal diet (CE-2; CLEA Japan) ad libitum.
PK samples were collected and stored at ≤−60° C. Animals were dosed according to the dosing schedule below. Each animal was sacrificed 5 hours after last morning dose on the last day of study treatment (the evening dose of cenicriviroc or vehicle […] that day due to sacrifice).
Measurements: • The following parameters were measured or monitored daily: individual body weight, survival, clinical signs and behavior of mice. • Pharmacokinetic measurements: PK samples were collected from 4 animals per time point per compound. PK samples were for Compound A at hours 1 and 24 on Day 6 (n=4 per timepoint) for both monotherapy and combination groups. PK samples were taken for Cenicriviroc on Day 10 at hours 2 and 12 (n=4 per timepoint) for both monotherapy and combination groups. Only one PK sample was collected per animal using the first 8 animals per group, per the schedule below:
Mice were sacrificed at 9 weeks of age (study 1) or at 12 weeks of age (study 2).
The following samples were collected: plasma, liver (fresh liver samples for gene expression analysis were collected at 5 hr post the last morning (AM) dose for each animal), stool. Organ weight was measured.
The following biochemical assays were performed: Non-fasting blood glucose in whole blood by Life Check (Eidia, Japan); serum ALT by FUJI DRI-CHEM (Fujifilm, Japan); serum triglyceride; serum MCP-1, RANTES (CCLS) and MIP-1a/MIP-1 quantification by a commercial ELISA kit; liver triglyceride by Triglyceride E-test kit (Wako, Japan); liver hydroxyproline quantification by hydrolysis method; histological analyses for liver section; HE staining and estimation of NAFLD Activity score; Sirius-red staining and estimation of fibrosis area (with and without perivascular space subtracted); oil red staining and estimation of fat deposition area; F4/80 immunohistochemistry staining and estimation of inflammation area; alpha-SMA immunohistochemistry staining and estimation of α-SMA positive area Gene expression assays using total RNA from the liver.
Statistical tests were performed using one-way ANOVA followed by Dunnett's test and the Mann-Whitney test, as appropriate, for the multiple group comparisons. P values <0.05 are considered statistically significant.

[7] = test system: nonalcoholic steatohepatitis patients; details: long term administration; cited from earlier work
[8] = test system: PBC; details: in vivo; cited from earlier work

For CCCCOCCOc1ccc(-c2ccc3c(c2)/C=C(/C(=O)Nc2ccc([S@@+]([O-])Cc4cncn4CCC)cc2)CCCN3CC(C)C)cc1 [cenicriviroc, (S,E)-8-(4-(2-butoxyethoxy)phenyl)-1-(2-methylpropyl)-N-(4-(((1-propyl-1H-imidazol-5-yl)methyl)sulfinyl)phenyl)-1,2,3,4-tetrahydrobenzo[b]azocine-5-carboxamide], the Adverse effects [1] is given as “can induce fatigue or diarrhea in a small part of the patients”, the Fibrosis [1] is given as “reduction of fibrosis” and the “Improvement of NAS” value [1] is given as “no significant impact”.
For Cn1nc(C(=O)N(Cc2ccccc2)Cc2ccc(C(=O)O)cc2)c2c1-c1cc(Cl)ccc1OC2 [Compound A, 4-((N-benzyl-8-chloro-1-methyl-1,4-dihydrochromeno[4,3-c]pyrazole-3 carboxamido)methyl)benzoic acid], the accumulation ratio ([2]; MAD) was “mild”, the Steady-state reached ([2]; MAD, daily for 14 days) was ≤ 5 days and the AUC decrease ([2]; SAD, with high-fat meal) was 26%. The Cmax decrease ([2]; SAD, with high-fat meal) was 58%, the “Severe drug-related AEs” value ([2]; any cohort) was “No severe drug-related AEs were reported” and the “Safety and pharmacological activity” value ([2]; daily doses of 5 mg to 750 mg) was “safe and pharmacological active”. For the same compound, the SAEs attributed ([2]; daily doses up to 250 mg for 14 days) was “No SAEs have been attributed”, the Tmax ([2]; human, plasma, oral, SAD, with high-fat meal, read-out: median Tmax) was 4 h and the Cmax ([2]; human, plasma, oral, SAD, 5-750 mg doses) was 177 to 12700 ng/mL. For the same compound, the half-life ([2]; human, plasma, oral, SAD, 5-750 mg doses, read-out: mean t1/2) was 11.7 to 23.5 h, the Tmax ([2]; human, plasma, oral, SAD, 5-750 mg doses, read-out: median plasma Tmax) was 1.75 to 3 h and the Tolerability ([2]; maximum doses tested (750 mg SAD and 250 mg MAD)) was “well tolerated”. For the same compound, the Reduction of fibrosis [3] was “to a greater extent than OCA”, the “Reduction of hepatic steatosis” value [3] was “to a greater extent than OCA” and the “Reduction of hepatocellular ballooning” value [3] was “to a greater extent than OCA”. For the same compound, the “Reduction of lobular inflammation” value [3] was “to a greater extent than OCA”, the ALT reduction ([4]; 1.5 mg/kg) was 75% and the AST reduction ([4]; 1.5 mg/kg) was 80%. The GGT reduction ([4]; 1.5 mg/kg) was 85%, the “ANIT-induced histologic alterations in the liver” value ([4]; rat, in vivo) was “reduced the ANIT-induced histologic alterations in the liver” and the “plasma FGF19 levels” value ([5]; MAD, Day 14) was “dose-dependent increase”. The “plasma FGF19 median Cmax” value ([5]; MAD, Day 14, 250 mg) was 979 pg/mL, the “serum C4 levels” value ([5]; MAD, similar dose range) was “decline” and the “total bile acid (TBA) levels” value ([5]; MAD, similar dose range) was “decline”. For the same compound, the “FGF19 with increasing doses” value ([5]; doses even beyond 250 mg) was “continues to rise”, the “Serum FGF15 levels” value ([5]; in vivo) was “increased with Compound A treatment in a dose-dependent manner” and the “Ballooning, NAS (mean +/− SD)” value ([6]; Study 1) was 1.3 ± 0.8. The “Ballooning, Score 0 (number of animals/group)” value ([6]; Study 1) was 2, the “Ballooning, Score 1 (number of animals/group)” value ([6]; Study 1) was 3 and the “Ballooning, Score 2 (number of animals/group)” value ([6]; Study 1) was 5. For the same compound, the “Fibrosis, NAS (mean +/− SD)” value ([6]; Study 1) was 0.51 ± 0.25, the “Inflammatory infiltrates, Score 0 (number of animals/group)” value ([6]; Study 1) was 7 and the “Inflammatory infiltrates, Score 1 (number of animals/group)” value ([6]; Study 1) was 2. For the same compound, the “Inflammatory infiltrates, Score 2 (number of animals/group)” value ([6]; Study 1) was 1, the “Inflammatory infiltrates, Score 3 (number of animals/group)” value ([6]; Study 1) was 0 and the “NAS (mean +/− SD)” value ([6]; Study 1, dosed from age 6-9 weeks) was 2.7 ± 1.1. The “Ballooning, NAS (mean +/− SD)” value ([6]; Study 2) was 0.7 ± 0.8, the “Ballooning, Score 0 (number of animals/group)” value ([6]; Study 2) was 5 and the “Ballooning, Score 1 (number of animals/group)” value ([6]; Study 2) was 3. The “Ballooning, Score 2 (number of animals/group)” value ([6]; Study 2) was 2, the “Fibrosis, NAS (mean +/− SD)” value ([6]; Study 2) was 0.55 ± 0.32 and the “Inflammatory infiltrates, Score 0 (number of animals/group)” value ([6]; Study 2) was 3. The “Inflammatory infiltrates, Score 1 (number of animals/group)” value ([6]; Study 2) was 1, the “Inflammatory infiltrates, Score 2 (number of animals/group)” value ([6]; Study 2) was 4 and the “Inflammatory infiltrates, Score 3 (number of animals/group)” value ([6]; Study 2) was 2. The “NAS (mean +/− SD)” value ([6]; Study 2, dosed from age 9-12 weeks) was 2.7 ± 1.1, the “Ballooning compared with the STAM-Vehicle group” value ([6]; both studies) was “trend for the reduction of ballooning” and the “Fibrosis area compared with the STAM-Vehicle group” value ([6]; both studies) was “trend for the reduction of the fibrosis area”. For the same compound, the “Inflammatory infiltrates compared with the STAM-Vehicle group” value ([6]; both studies 1 and 2) was “significant reduction of Inflammatory infiltrates” and the “NAS compared with the STAM-Vehicle group” value ([6]; both studies 1 and 2) was “significant reduction in NAS”.
In the case of CC[C@H]1[C@@H](O)[C@@H]2[C@H](CC[C@]3(C)[C@@H]([C@H](C)CCC(=O)O)CC[C@@H]23)[C@@]2(C)CC[C@@H](O)C[C@@H]12 [OCA, Obeticholic acid], the Safety concerns [7] is listed as “can be associated with pruritus, as well as with increased LDL cholesterol”.
For C[C@H](CCC(=O)O)[C@H]1CC[C@H]2[C@@H]3[C@@H](O)C[C@@H]4C[C@H](O)CC[C@]4(C)[C@H]3CC[C@]12C [UDCA, Ursodeoxycholic acid], the “population that does not respond” value [8] is given as 30-40%.
